# From PubChem BioAssay AID2060891 (Molecular Pharmacology Branch, DTP, NCI, 2025)
# Test system: K98450-129-R-PDC complex spheroid growth, percent test/control
# Experiment: Anticancer human tumor K98450-129-R-PDC patient-derived colon adenocarcinoma cell line growth inhibition [RAS]
# Details: for IC50: curve of first compound; for viability, T/C: stronger effect = lower value
# Outline: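 Tumour cells grown as complex spheroids with HUVEC endothelial cells and mesenchymal stem cells, treated with RAS pathway inhibitor combinations. Each agent spans half-log steps from near clinical Cmax, or 10 microM where Cmax is unknown.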
# [1] = second compound 0.000949 µM, first compound 0.0316 µM
# [2] = second compound 0.000949 µM, first compound 0.1 µM
# [3] = second compound 0.000949 µM, first compound 0.316 µM
# [4] = second compound 0.000949 µM, first compound 1 µM
# [5] = second compound 0.003 µM, first compound 0.0316 µM
# [6] = second compound 0.003 µM, first compound 0.1 µM
# [7] = second compound 0.003 µM, first compound 0.316 µM
# [8] = second compound 0.003 µM, first compound 1 µM
# [9] = second compound 0.00949 µM, first compound 0.0316 µM
# [10] = second compound 0.00949 µM, first compound 0.1 µM
# [11] = second compound 0.00949 µM, first compound 0.316 µM
# [12] = second compound 0.00949 µM, first compound 1 µM
# [13] = second compound 0.03 µM, first compound 0.0316 µM
# [14] = second compound 0.03 µM, first compound 0.1 µM
# [15] = second compound 0.03 µM, first compound 0.316 µM
# [16] = second compound 0.03 µM, first compound 1 µM
# [17] = second compound 0.0949 µM, first compound 0.0316 µM
# [18] = second compound 0.0949 µM, first compound 0.1 µM
# [19] = second compound 0.0949 µM, first compound 0.316 µM
# [20] = second compound 0.0949 µM, first compound 1 µM
# [21] = second compound 0.3 µM, first compound 0.0316 µM
# [22] = second compound 0.3 µM, first compound 0.1 µM
# [23] = second compound 0.3 µM, first compound 0.316 µM
# [24] = second compound 0.3 µM, first compound 1 µM
# [25] = second compound 0.000949 µM, first compound 3.16 µM
# [26] = second compound 0.000949 µM, first compound 10 µM
# [27] = second compound 0.003 µM, first compound 3.16 µM
# [28] = second compound 0.003 µM, first compound 10 µM
# [29] = second compound 0.00949 µM, first compound 3.16 µM
# [30] = second compound 0.00949 µM, first compound 10 µM
# [31] = second compound 0.03 µM, first compound 3.16 µM
# [32] = second compound 0.03 µM, first compound 10 µM
# [33] = second compound 0.0949 µM, first compound 3.16 µM
# [34] = second compound 0.0949 µM, first compound 10 µM
# [35] = second compound 0.3 µM, first compound 3.16 µM
# [36] = second compound 0.3 µM, first compound 10 µM
# 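Also: spheroids exposed to agents for seven days before the viability readout.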
# 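For viability, T/C in this document: luminescence used as a proxy for viable cell amount.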
structure (smiles),measurement,setting,value
CCN1CCN(Cc2ccc(Nc3ncc(F)c(-c4cc(F)c5nc(C)n(C(C)C)c5c4)n3)nc2)CC1 + CCn1c(-c2cc(N3CCN(C)CC3)cnc2C(C)OC)c2c3cc(ccc31)-c1csc(n1)CC(NC(=O)C1CC1C)C(=O)N1CCCC(N1)C(=O)OCC(C)(C)C2,IC50,second compound 0.000949 µM,> 1000 nM
same,IC50,second compound 0.003 µM,723 nM
same,IC50,second compound 0.00949 µM,73.2 nM
same,IC50,second compound 0.03 µM,23.7 nM
same,IC50,second compound 0.0949 µM,< 3.16 nM
same,IC50,second compound 0.3 µM,< 3.16 nM
same,"viability, T/C","second compound 0.000949 µM, first compound 0.00316 µM",75.8%
same,"viability, T/C","second compound 0.000949 µM, first compound 0.01 µM",83%
same,"viability, T/C",[1],90.9%
same,"viability, T/C",[2],80.8%
same,"viability, T/C",[3],65.6%
same,"viability, T/C",[4],65.6%
same,"viability, T/C","second compound 0.003 µM, first compound 0.00316 µM",95.1%
same,"viability, T/C","second compound 0.003 µM, first compound 0.01 µM",85.8%
same,"viability, T/C",[5],72.5%
same,"viability, T/C",[6],71%
same,"viability, T/C",[7],54.1%
same,"viability, T/C",[8],47.6%
same,"viability, T/C","second compound 0.00949 µM, first compound 0.00316 µM",79.8%
same,"viability, T/C","second compound 0.00949 µM, first compound 0.01 µM",64.1%
same,"viability, T/C",[9],59.2%
same,"viability, T/C",[10],47.7%
same,"viability, T/C",[11],38.6%
same,"viability, T/C",[12],33.2%
same,"viability, T/C","second compound 0.03 µM, first compound 0.00316 µM",49.8%
same,"viability, T/C","second compound 0.03 µM, first compound 0.01 µM",51.8%
same,"viability, T/C",[13],49.7%
same,"viability, T/C",[14],27.2%
same,"viability, T/C",[15],24.4%
same,"viability, T/C",[16],25.9%
same,"viability, T/C","second compound 0.0949 µM, first compound 0.00316 µM",18.8%
same,"viability, T/C","second compound 0.0949 µM, first compound 0.01 µM",18.5%
same,"viability, T/C",[17],17.3%
same,"viability, T/C",[18],14.1%
same,"viability, T/C",[19],18.4%
same,"viability, T/C",[20],22.8%
same,"viability, T/C","second compound 0.3 µM, first compound 0.00316 µM",10.8%
same,"viability, T/C","second compound 0.3 µM, first compound 0.01 µM",13.6%
same,"viability, T/C",[21],11.3%
same,"viability, T/C",[22],12.7%
same,"viability, T/C",[23],16.3%
same,"viability, T/C",[24],23.1%
Cc1nc(N2CCC3(CC2)COC(C)C3N)c(CO)nc1Sc1ccnc(N)c1Cl (stereo unspecified) + CCn1c(-c2cc(N3CCN(C)CC3)cnc2C(C)OC)c2c3cc(ccc31)-c1csc(n1)CC(NC(=O)C1CC1C)C(=O)N1CCCC(N1)C(=O)OCC(C)(C)C2,IC50,second compound 0.000949 µM,1400 nM
same,IC50,second compound 0.003 µM,644 nM
same,IC50,second compound 0.00949 µM,224 nM
same,IC50,second compound 0.03 µM,< 31.6 nM
same,IC50,second compound 0.0949 µM,< 31.6 nM
same,IC50,second compound 0.3 µM,< 31.6 nM
same,"viability, T/C",[1],99.3%
same,"viability, T/C",[2],71.3%
same,"viability, T/C",[3],80.2%
same,"viability, T/C",[4],55.4%
same,"viability, T/C",[25],35.8%
same,"viability, T/C",[26],16.7%
same,"viability, T/C",[5],89%
same,"viability, T/C",[6],64.3%
same,"viability, T/C",[7],61.8%
same,"viability, T/C",[8],51.8%
same,"viability, T/C",[27],22%
same,"viability, T/C",[28],11%
same,"viability, T/C",[9],64.3%
same,"viability, T/C",[10],53.4%
same,"viability, T/C",[11],48.2%
same,"viability, T/C",[12],19.5%
same,"viability, T/C",[29],8.78%
same,"viability, T/C",[30],7.55%
same,"viability, T/C",[13],38.6%
same,"viability, T/C",[14],39.2%
same,"viability, T/C",[15],14.5%
same,"viability, T/C",[16],8.49%
same,"viability, T/C",[31],8.08%
same,"viability, T/C",[32],6.16%
same,"viability, T/C",[17],15.2%
same,"viability, T/C",[18],13.1%
same,"viability, T/C",[19],10.9%
same,"viability, T/C",[20],9.07%
same,"viability, T/C",[33],6.17%
same,"viability, T/C",[34],4%
same,"viability, T/C",[21],10.7%
same,"viability, T/C",[22],11.6%
same,"viability, T/C",[23],9.12%
same,"viability, T/C",[24],7.56%
same,"viability, T/C",[35],6.68%
same,"viability, T/C",[36],5.63%
NC1c2ccccc2OC12CCN(c1cnc3c(N4CCCc5ncccc54)n[nH]c3n1)CC2 (stereo unspecified) + CCn1c(-c2cc(N3CCN(C)CC3)cnc2C(C)OC)c2c3cc(ccc31)-c1csc(n1)CC(NC(=O)C1CC1C)C(=O)N1CCCC(N1)C(=O)OCC(C)(C)C2,IC50,second compound 0.000949 µM,116 nM
same,IC50,second compound 0.003 µM,63.1 nM
same,IC50,second compound 0.00949 µM,< 31.6 nM
same,IC50,second compound 0.03 µM,< 31.6 nM
same,IC50,second compound 0.0949 µM,< 31.6 nM
same,IC50,second compound 0.3 µM,< 31.6 nM
same,"viability, T/C",[1],85.1%
same,"viability, T/C",[2],54.5%
same,"viability, T/C",[3],20.4%
same,"viability, T/C",[4],8.29%
same,"viability, T/C",[25],8.32%
same,"viability, T/C",[26],8.57%
same,"viability, T/C",[5],69.2%
same,"viability, T/C",[6],37.2%
same,"viability, T/C",[7],8.71%
same,"viability, T/C",[8],5.81%
same,"viability, T/C",[27],5.89%
same,"viability, T/C",[28],8.17%
same,"viability, T/C",[9],44.1%
same,"viability, T/C",[10],11.7%
same,"viability, T/C",[11],6.79%
same,"viability, T/C",[12],5.19%
same,"viability, T/C",[29],5.86%
same,"viability, T/C",[30],7.32%
same,"viability, T/C",[13],15.4%
same,"viability, T/C",[14],9.39%
same,"viability, T/C",[15],6.76%
same,"viability, T/C",[16],6.09%
same,"viability, T/C",[31],6.31%
same,"viability, T/C",[32],7.21%
same,"viability, T/C",[17],10.1%
same,"viability, T/C",[18],7.59%
same,"viability, T/C",[19],5.43%
same,"viability, T/C",[20],4.79%
same,"viability, T/C",[33],4.55%
same,"viability, T/C",[34],7.03%
same,"viability, T/C",[21],9.29%
same,"viability, T/C",[22],7.37%
same,"viability, T/C",[23],5.01%
same,"viability, T/C",[24],4.13%
same,"viability, T/C",[35],4.98%
same,"viability, T/C",[36],5.88%
